# Laboratory results published in paper PMC10705946, “^225Ac-iPSMA-RGD for Alpha-Therapy Dual Targeting of Stromal/Tumor Cell PSMA and Integrins” (International Journal of Molecular Sciences, 2023).
# How the values were obtained:
# [1] = system: HCT116 colorectal cancer cells; assay: Cellular uptake and internalization, with blocked receptor assay; type: cell-based, human
# Description: The ^225Ac-iPSMA-RGD uptake was performed on HCT116, C6 and PC3 cell lines, which were selected based on their variable PSMA and RGD expression according to previous research by our group and others. Each cell line was diluted to 1 × 10^6 cells with 1 mL of PBS in tubes and incubated at 37 °C with 30 μL of ^225Ac-iPSMA-RGD (20 μL, 70 Bq) for 0.5 h, 1 h and 3 h (n = 6). At each time point, the tubes were centrifuged at 3000 rpm for 5 min and rinsed twice with PBS. The measured activity in a NaI(Tl) well-type detector in the pellet, represents the uptake and internalization. To remove the ^225Ac-iPSMA-RGD at the cell membrane level, 1 mL of 0.2 M CH3COOH /0.5 M NaCl was added and the pellet was resuspended. The tubes were then centrifuged and washed with PBS twice (this activity is considered internalization).
# [2] = system: HCT116 cells; assay: Viability (cytotoxicity) assay at 24 h; type: cell-based, human; settings: 2 to 4 Gy
# Description: Cytotoxic assays were performed in triplicate (n = 6) using HCT116 cells. After harvesting each cell line, 10,000 cells per well were placed in a 96-well plate and incubated at 37 °C to allow adherence. After 24 h, the culture medium was removed, and treatments (2 Gy, 4 Gy) were placed in each well. To deliver 2 and 4 Gy of radiation dose, 6 Bq/well and 12 Bq/well were added and exposed for 15 h. Then, the treatments were removed and replaced with the medium. The cytotoxicity was evaluated at 24 h by using the Cell proliferation assay (Roche Diagnostics GmbH, Mannheim, Germany). Statistical analysis was performed with two-way ANOVA followed by Tukey’s multiple comparisons test using GraphPad Prism 5.0 Software. Data are shown as mean ± SEM. A p < 0.05 was considered statistically significant.
# [3] = system: HCT116 tumors; assay: Tumor size progression after treatment; type: in vivo, mice; settings: 37 kBq
# Description: A second group of mice was inoculated subcutaneously with 1 × 10^6 HCT116 cells. After the mice developed a tumor (0.220 ± 0.030 g), they were treated with 3.7 kBq (50 µL) of ^225Ac-iPSMA-RGD (n = 3) via tail vein injection. Animals were necropsied on day 11 post-treatment, as described above.
# [4] = system: HCT116 tumor and lung, spleen, kidney, liver tissues; assay: Histology (H&E) and immunohistochemistry of organs and tumor; type: in vivo, mice
# Description: Formalin-fixed paraffin-embedded samples (lung, spleen, kidney and tumor), were sectioned at 4 µm sections and stained with H&E. For immunohistochemical reactions, samples were deparaffinized, hydrated, and subjected to an antigen retrieval protocol (slides were immersed in a prewarmed Citrate-EDTA buffer solution (10mM citric acid, 2 mM EDTA, 0.05% Tween 20, pH 7.0) at 100 °C for 30 min. Endogenous peroxidase was then blocked with 0.9% hydrogen peroxide (H2O2) solution for 5 min. To prevent non-specific binding, the samples were incubated with 5% bovine serum albumin (BSA) for 10 min. After subsequent washes with phosphate-buffered saline (PBS)-Tween (0.05%), samples were incubated overnight at 4 °C with primary monoclonal rabbit anti- Ki-67 [SP6] antibody (Biocare Medi-cal-CRM 325A, Pacheco, CA, USA). After subsequent washing, samples were incubated with secondary HRP donkey anti-rabbit IgG (minimal x-reactivity) antibody (Biolegend-406401 San Diego, CA) for 1 h. For mitochondrial permeabilization processes estimation, the samples were incubated overnight at 4 °C with unconjugated Bcl-2 (C2) sc-7882 antibody (Santa Cruz Biotechnology Inc., Dallas, TX, USA). As a secondary antibody, we used m-IgG1 BP-HRP: sc-525408 (Santa Cruz Biotechnology Inc., Dallas, TX, USA). Samples were incubated for 1 h. For apoptotic cell estimation, unconjugated active (cleaved) Caspase-3 Monoclonal Antibody bsm-33199M (Bioss Inc., Woburn, MA, USA) was used. The samples were incubated overnight at 4 °C, and the secondary antibody was goat Anti-Mouse IgG (Fc specific)–peroxidase antibody A2554 (Millipore-Sigma Aldrich, Merck KGaA, Darmstadt, Germany). Samples were incubated for 1 h. Both primary and secondary antibodies were used at a 1:100 dilution. To visualize the immunoreactions, the samples were washed with distilled water and Tris-buffered saline-Tween (TBST) for 5 min, and the diaminobenzidine (DAB) (Dako Liquid DAB+ Substrate Chromogen System K3468) was applied for 60 s. Excess chromogen was removed by washing with PBS-Tween. Finally, the slides were counterstained with Harris hematoxylin, dehydrated, and coverslipped. As a negative control, immunoreactions were performed using the same method with PBS instead of the primary antibody. Images were captured using a Lumenera INFINITY X-32 MP camera in a Carl Zeiss Axiostar microscope.
# [5] = HCT116 tumor-bearing mice, 11 days after administration (37 kBq)
# Description: All animal procedures followed the Ethical Regulations for the Handling of Laboratory Animals (NOM-062-ZOO-1999) and the requirements of the Institutional Animal Care and Use Committee, according to an approved protocol (CICUAL-08-2018-2021). […] Mice were injected with 3.7 kBq (50 µL) of ^225Ac-iPSMA-RGD and necropsied at 1, 3, 24, 72, and 96 h (n = 3). The liver, heart, kidney, pancreas, lung, spleen, small intestine, and stomach were measured using the Francium-221 photopeak (218 keV) in a hyperpure germanium gamma spectrometer (Ortec, Atlanta, GA, USA). Results were recorded as a percentage of injected dose (%ID) per organ. Blood and bone samples were also dissected, and the associated activity was recorded as %ID/g. A second group of mice was inoculated subcutaneously with 1 × 10^6 HCT116 cells. […] Animals were necropsied on day 11 post-treatment, as described above. Radioisotopic/X-ray ex vivo images of the source organs and tumor were obtained in a preclinical imaging system (Bruker, XTREME, Billerica, MA, USA).
# [6] = mice, day 11 after treatment
# [7] = HCT116 tumor, immunohistochemistry
compound,measurement,setting,value
"N=C(N)NCCC[C@@H]1NC(=O)[C@H](CCCCNC(=O)CCCN2C(=O)CC(SC[C@H](NC(=O)c3ccc(NNC(=S)Nc4ccc(CC5CN(CC(=O)O)CCN(CC(=O)O)CCN(CC(=O)O)CCN(CC(=O)O)CCN(CC(=O)O)CCN5CC(=O)O)cc4)nc3)C(=O)N[C@@H](Cc3ccc4ccccc4c3)C(=O)NCCCC[C@H](NC(=O)N[C@@H](CCC(=O)O)C(=O)O)C(=O)O)C2=O)NC(=O)[C@@H](Cc2ccccc2)NC(=O)[C@H](CC(=O)O)NC(=O)CNC1=O (some centres unmarked) [^225Ac-iPSMA-RGD, ^225Ac-HEHA-HYNIC-iPSMA-RGD, metal not drawn]","Uptake and internalization, blocked vs unblocked cell receptors","[1]; HCT116 cells, blocking with unlabeled 1 mM iPSMA, RGD and iPSMA-RGD",statistically significant difference between blocked and unblocked cell receptors
same,Radiopharmaceutical uptake in colorectal cancer cells compared to C6 and PC3 cells,[1]; HCT116 vs C6 and PC3 cells,significantly higher
same,Cell viability,[2],dose-dependent decrease in cell viability
same,Tumor size progression compared to control group (untreated mice),[3]; HCT116 tumor-bearing mice,significantly lower (p < 0.05)
same,Tumor size compared to ^225Ac-RGD and ^225Ac-PSMA groups,[3]; eleven days after administration,significantly lower (p < 0.05)
same,Bcl-2 expression in tumor,[4]; [7],inhibited the Bcl-2 expression
same,Caspase-3 activity in tumor,[4]; [7],upregulated the Caspase-3 activity
same,Tumor proliferative activity (Ki67 expression) vs untreated mice,[4]; [7],significantly lower
same,"Histological (H&E) evaluation of lung, spleen, kidney and liver",[4]; treated mice vs untreated mice,no pathologic changes
same,Tissue retention in ex-vivo radioisotopic imaging,[5],the tissue accumulating the radiotracer for the longest time is the tumor
same,Renal or hepatic function damage,[6],no damage to renal or hepatic function was detected
same,Serum alanine aminotransferase,[6],70 ± 8 IU/L
same,Serum aspartate aminotransferase,[6],141 ± 19 IU/L
same,Serum creatinine,[6],0.215 ± 0.071 mg/dL
